Source: patent US8603966B2, “Amino acid-based compounds, their methods of use, and methods of screening” (The Administrators of the Tulane Educational Fund, priority 2009, dated 2013)
No end group written: not given here.

Assays:
[1] = test system: Chinese Hamster Ovary (CHO) cells; test: Cell penetration by laser scanning confocal fluorescence microscopy; format: cell-based; settings: for Cell Penetrating Half-time: SD ±10 min
Description: (§1) Laser Scanning Confocal Fluorescence Microscopy: Some translocating peptides were synthesized and labeled with the fluorescent dye TAMRA on either their amino terminus (N-labeled) or on a C-terminal cysteine residue (C-labeled). Live Chinese Hamster Ovary (CHO) cells were used to assess the ability of the labeled peptides to translocate across living cell membrane into the cells without causing toxicity.
CHO cells were incubated with peptide that was labeled on a C-terminal cysteine residue with the red fluorescent dye TAMRA. Cells and labeled peptide were incubated for 10 minutes in minimal media at 37° C. Cells were then washed to remove labeled peptide from the solution. The minimal media was replaced and 1 μM NBD (7-nitrobenz-2-oxa-1,3-diazol-4-yl) labeled lyso-phosphatidylthanolamine was added to the cells to label the plasma membrane. Labeled peptide concentrations for the panels are: A) 0 μM, B) 2 μM, C) 5 μM, and D) 10 μM. The scale bar represents 50 μm.
Panels A-G of FIG. 6 show representative CFM images monitoring the translocation of a labeled peptide with SEQ ID NO. 04 (synthesized with all D-amino acids for the chiral amino acids) in 10 minute intervals. CHO cells were incubated with the TAMRA-labeled peptide in minimal media and monitored over time at 25° C. without washing. The incubation times for the panels are: A) 5 min., B) 15 min., C) 25 min., D) 35 min., E) 45 min., F) 55 min., and G) 65 min. […] The scale bar represents 50 μm.
(§2) In this experiment, the externally added labeled peptide has not been washed away so the solution itself is fluorescent due to added TAMRA-labeled peptide. The black silhouettes in Panel A show the location of cells; before labeled-peptide entry, there is no fluorescence inside the cells.
All labeled peptides tested are able to translocate across living cell membranes and carry the large polar dye molecule TAMRA with them into the cell. Cell penetration was assessed by measuring TAMRA intensity inside CHO cells during incubation with the peptides in Table 4 and comparing intensity inside the cells with the external solution. Incubations were done at either 25° C. or 37° C., at concentrations listed. The half-times for penetration were determined, as shown in Table 5; the half-times have standard deviations of ±10 min. Based on final intensities inside the cells, all labeled peptides tested have similar cell penetrating activity at concentrations tested and at the temperatures tested. Toxicity was determined using the same conditions (e.g., solution and temperature) and concentrations as the cell penetration experiments. Toxicity was assessed by imaging at least 100 cells and counting cells with altered cell morphology, loss of confluence, or loss of adherence to substrate. In some experiments, the non-membrane permeable DNA dye SYTOX green was used to assess membrane integrity. In most cases, no measurable increase in toxicity or membrane integrity over control samples was detectable; this is indicated by the <5% in Table 5.

[2] = High throughput screen: Tb3+/DPA leakage from liposomes; settings: labeled peptide:lipid 1:300; % of Tb3+ released after 60 minutes vs Triton-X 100 solubilized control (100% leakage)
Description: (§3) High throughput screening: For high throughput screening, 100 mM lipid bilayer vesicles were prepared by extrusion in the presence of 50 mM Tb^3+/citrate and 10 mg/mL chymotrypsin. The external Tb^3+/citrate and chymotrypsin were removed by gel filtration. To make the screening solution, 50 μM dipicolinic acid (DPA) and 1 μM α 1-antitrypsin were added to the external medium. The lipid composition was about 90% palmitoyloleoylphostadidylcholine (POPC) and about 10% palmitoyloleoyl phostadidylglycerol (POPG).
(§4) The combinatorial labeled peptide library was screened to identify and measure properties of translocation and leakage (e.g., pore-formation). Beads from the synthesis were exposed to longwave UV to cleave the peptide from the resin. The reaction added an amine group to the labeled peptide at the site of cleavage, yielding a Gln residue. Beads were then separated into individual wells of a multiwell plate and the peptides were extracted into 5 μl of dry dimethylsulfoxide overnight. This cleaved approximately 0.75 nmol of labeled peptide from each bead, about half of the total labeled peptide on the bead. A chymotrypsin cleavage site was incorporated into the labeled peptides' design (FIG. 1) and when hydrolysis occurs the AMC fluorophore is released. The spectra of the free AMC fluorophore is red-shifted as compared to that of the peptide-AMC conjugate (FIG. 2). When a labeled peptide translocates, the chymotrypsin inside the vesicle catalyzes the hydrolysis of the peptide bond contributed by the AMC moiety (FIG. 3B). Translocation was monitored by the rate of accumulation of free AMC. In the case of leakage, interaction of the lanthanide metal terbium III (Tb^3+) with the aromatic chelator dipiccolinic acid (DPA) creates a complex that is fluorescent at low μM concentrations (FIG. 3A). By entrapping Tb^3+ and chymotrypsin inside the liposomes and then adding dipiccolinic acid and a chymotrypsin inhibitor to the external medium, a visual reporter system for translocation with and without membrane leakage was created that can detect as little as 5 pmol of labeled peptide.
(§5) To screen for solubility, the labeled peptide DMSO solution was diluted and incubated for 30 minutes before adding the screening solution. Free-AMC fluorescence was monitored at 450 nm emission (350 nm excitation) for 30 minutes and then the wells were read at 460 nm emission (280 nm excitation) for Tb^3+/DPA complex formation. Wells with the highest free AMC accumulation and/or Tb^3+/DPA fluorescence were sent to the Michigan State University Protein Core Facility for sequencing.
(§6) The screen was performed at a labeled peptide to lipid ratio of 1:300. […] In FIG. 4, the oval labeled “Leakage” indicates labeled peptides that show mostly leakage with a minimum of the relative rate of free AMC production. The oval labeled “Translocation” indicates labeled peptides that show a higher relative rate of free AMC production with a minimum of leakage. Roughly 24,000 beads were screened at 1:300 labeled peptide:lipid, a sequence coverage space of 90%. The labeled peptides indicating the highest translocation and highest % leakage were identified by Edman sequencing from the beads.
(§7) Free-AMC fluorescence was monitored at 450 nm emission (350 nm excitation) for 30 minutes and then the wells were read at 460 nm emission (280 nm excitation) for Tb^3+/DPA complex formation. Percent leakage is the % of Tb^3+ released from lipid vesicles after 60 minutes, compared to a Triton-X 100 detergent-solubilized control (100% leakage). […] Free AMC was determined in real time by monitoring the fluorescence of free AMC after vesicle addition using a BioTek Synergy II fluorescence plate reader. The two assays were performed on the same samples.

[3] = High throughput screen: translocation into liposomes (free AMC production by entrapped chymotrypsin); settings: labeled peptide:lipid 1:300; rate divided by rate in chymotrypsin solution without inhibitor and liposomes
Description: as §3, §4, §5, §6, §7

[4] = test system: Chinese Hamster Ovary (CHO) cells; format: cell-based
From the text: as §1, §2
All labeled peptides tested are able to translocate across living cell membranes and carry the large polar dye molecule TAMRA with them into the cell. Cell penetration was assessed by measuring TAMRA intensity inside CHO cells during incubation with the peptides in Table 4 and comparing intensity inside the cells with the external solution. Incubations were done at either 25° C. or 37° C., at concentrations listed. The half-times for penetration were determined, as shown in Table 5; the half-times have standard deviations of ±10 min. […] Toxicity was determined using the same conditions (e.g., solution and temperature) and concentrations as the cell penetration experiments. […]

| Substance | % Leakage [2] [%] | Relative Rate of Free AMC Production [3] | other results |
| --- | --- | --- | --- |
| Arg-Arg-Ile-Leu-Leu-Gln-Leu-Leu-Arg-Gly-Gln-Phe (RRILLQLLRGQF; not fully specified (C-terminus); printed as Arg-Arg-Ile-Leu-Leu-Gln-Leu-Leu-Arg-Gly-Gln-Phe) [SEQ ID NO: 10 (C-labeled), peptide labeled with the dye TAMRA on a C-terminal cysteine] | – | – | Cell Penetrating Half-time ([1]; 25° C., 1.7-10 μM): 15 min |
| Arg-Arg-Ile-Leu-Leu-Gln-Leu-Leu-Leu-Gly-Gln-Phe (RRILLQLLLGQF; not fully specified (C-terminus); printed as Arg-Arg-Ile-Leu-Leu-Gln-Leu-Leu-Leu-Gly-Gln-Phe) [SEQ ID NO: 15 (C-labeled), peptide labeled with the dye TAMRA on a C-terminal cysteine] | – | – | Cell Penetrating Half-time ([1]; 37° C., 1.7-5 μM): <30 min |
| Arg-Lys-Gly-Leu-Leu-Gln-Leu-Leu-Leu-Gly-Gln-Phe (RKGLLQLLLGQF; not fully specified (C-terminus); printed as Arg-Lys-Gly-Leu-Leu-Gln-Leu-Leu-Leu-Gly-Gln-Phe) [SEQ ID NO: 18 (C- labeled), peptide labeled with the dye TAMRA on a C-terminal cysteine] | – | – | Cell Penetrating Half-time ([1]; 37° C., 1.7-5 μM): <30 min |
| PKILLFKLLGQF [SEQ ID NO: 12] | 1.6 | 1.7 | – |
| PKQLLRLLLGQF [SEQ ID NO: 20] | 90 | 0.4 | – |
| PLGYLFLLRGQF [SEQ ID NO: 05] | 6.0 | 1.9 | – |
| PLILLRLLRGQF [SEQ ID NO: 03] | 1.7 | 2.1 | – |
| PLIYPFLRLGQF [SEQ ID NO: 09] | −0.2 | 1.7 | – |
| PLRLLRLLRGQF [SEQ ID NO: 11] | 5.2 | 2.0 | – |
| PLRLRFLLRGQF [SEQ ID NO: 07] | −4.5 | 1.6 | – |
| PRILLRLLLGQF [SEQ ID NO: 16] | 89 | 1.0 | – |
| PRIYLRLLLGQF [SEQ ID NO: 14] | 82 | 1.1 | – |
| PRKLLQLLLGQF [SEQ ID NO: 13] | 86 | 0.6 | – |
| Pro-Leu-Ile-Leu-Leu-Arg-Leu-Leu-Arg-Gly-Gln-Phe (PLILLRLLRGQF; not fully specified (C-terminus); printed as Pro-Leu-Ile-Leu-Leu-Arg-Leu-Leu-Arg-Gly-Gln-Phe) [SEQ ID NO: 03 (C-labeled), peptide labeled with the dye TAMRA on a C-terminal cysteine] | – | – | Cell Penetrating Half-time ([1]; 37° C., 1.7-5 μM): <30 min |
| Pro-Leu-Ile-Tyr-Leu-Arg-Leu-Leu-Arg-Gly-Gln-Phe | – | – | half-time for cell entry ([1]; FIG. 6, 25° C., minimal media, without washing): 20 to 30 min; time at which cell penetration occurs ([1]; FIG. 6, 25° C., without washing): within a few minutes; toxicity (shape and coherence of the cells) [4]: toxicity is minimal |
| Pro-Leu-Ile-Tyr-Leu-Arg-Leu-Leu-Arg-Gly-Gln-Phe [SEQ ID NO: 04 (C-labeled)] | – | – | Cell Penetrating Half-time ([1]; 37° C., 1.7-10 μM): 20 min |
| Pro-Leu-Ile-Tyr-Leu-Arg-Leu-Leu-Arg-Gly-Gln-Phe [SEQ ID NO: 04] | 2.8 | 2.3 | – |
| RKGLLQLLLGQF [SEQ ID NO: 18] | 92 | 0.3 | – |
| RKILLRLLRGQF [SEQ ID NO: 02] | −3.0 | 1.6 | – |
| RKRLLQLLLGQF [SEQ ID NO: 21] | 84 | 0.7 | – |
| RLILLFRRLGQF [SEQ ID NO: 06] | 7.2 | 2.1 | – |
| RLILRQLLLGQF [SEQ ID NO: 19] | 102 | 1.6 | – |
| RLILRQLLRGQF [SEQ ID NO: 17] | 115 | 1.6 | – |
| RLIRLFLLRGQF [SEQ ID NO: 08] | 5.0 | 2.1 | – |
| RLIYLRLLRGQF [SEQ ID NO: 01] | 24 | 3.4 | – |
| RRILLQLLLGQF [SEQ ID NO: 15] | 105 | 0.0 | – |
| RRILLQLLRGQF [SEQ ID NO: 10] | 26 | 2.3 | – |
